Assay results published in PubChem BioAssay (NCI).
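Grown in 96-well plates, cells were treated for 48 hours with each compound at five concentrations. Insufficient inhibition: endpoint recorded as highest concentration tested. At the TGI there is no net growth.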

What was measured:
Assay in all cases: growth of human tumour cells (NCI), 48 h
[1] = test system: UACC-257 melanoma
[2] = test system: UACC-62 melanoma
[3] = test system: HCC-2998 colon
[4] = test system: SNB-75 CNS
[5] = test system: SF-268 CNS
[6] = test system: MOLT-4 leukemia
[7] = test system: NCI-H226 lung
[8] = test system: MDA-MB-435
[9] = test system: T-47D breast
[10] = test system: MDA-MB-231 breast
[11] = test system: HOP-92 NSCLC
[12] = test system: HCT-15 colon
[13] = test system: U251 CNS
[14] = test system: MDA-N
[15] = test system: HCT-116 colon
[16] = test system: PC-3 prostate
[17] = test system: 786-0 renal
[18] = test system: ACHN renal
[19] = test system: A498 renal

| Structure (SMILES) | TGI [1] [µM] | TGI [2] [µM] | TGI [3] [µM] | TGI [4] [µM] | TGI [5] [µM] | TGI [6] [µM] | TGI [7] [µM] | TGI [8] [µM] | TGI [9] [µM] | TGI [10] [µM] | TGI [11] [µM] | TGI [12] [µM] | TGI [13] [µM] | TGI [14] [µM] | TGI [15] [µM] | TGI [16] [µM] | TGI [17] [µM] | TGI [18] [µM] | TGI [19] [µM] |
| --- | --- | --- | --- | --- | --- | --- | --- | --- | --- | --- | --- | --- | --- | --- | --- | --- | --- | --- | --- |
| Cc1nnc(NS(=O)(=O)c2ccc(N=Nc3c(O)c(C(=O)O)cc4ccccc34)cc2)s1 | > 100 | > 100 | > 100 | > 100 | > 100 | > 100 | > 100 | > 100 | > 100 | > 100 | > 100 | > 100 | > 100 | > 100 | > 100 | > 100 | > 100 | > 100 |  |
| COC(=O)[C@@H](N1C(=O)c2ccccc2C1=O)C1(C)CC(Cl)=NO1 (some centres undefined) | > 100 | > 100 | > 100 | 35.9 | 76.9 |  | > 100 | > 100 | > 100 | 60.3 |  | > 100 | 77.2 | > 100 | > 100 | > 100 | > 100 | > 100 | 99.7 |
| C[N+](C)(C)CC(=O)N/N=C\c1c(O)ccc2ccccc12 | > 100 | > 100 |  | 71.1 | 69.8 | 51.7 | 85.9 | > 100 | > 100 | > 100 | 59.3 | > 100 | > 100 | > 100 | > 100 | > 100 | > 100 | > 100 | 97.8 |
| O=C(c1ccccc1)N1N=C(C(F)(F)F)CC1(O)C(F)(F)F (centres undefined) | > 100 |  | > 100 | > 100 | > 100 | > 100 | > 100 | > 100 | > 100 | > 100 |  | > 100 | > 100 | > 100 | > 100 | > 100 | > 100 | > 100 | > 100 |
| COc1ccc(C2OC2C(=O)C23CC4CC(CC(C4)C2)C3)cc1 (centres undefined) | > 100 | 49 | > 100 |  | > 100 | > 100 | > 100 | > 100 | > 100 | > 100 | > 100 | > 100 | > 100 | > 100 | > 100 | > 100 | > 100 | > 100 | > 100 |
| CCOC(=O)n1c(=O)nc2c3c(ncn21)Oc1c(c(-c2ccccc2)nn1-c1ccccc1)C3c1ccc(Cl)cc1 (centres undefined) | 3.42 | 3.1 | 1.97 | 4.75 | 2.92 |  | 2.99 | 3.03 | 3.15 | 2.7 | 2.85 | 2.4 | 3.06 | 3.01 | 2.82 | 3.1 | 2.85 | 3.09 | 3.85 |
| NC(C(=O)O)C(O)c1cnc[nH]1 (centres undefined) | > 100 | > 100 |  | > 100 | > 100 | > 100 | > 100 | > 100 | > 100 | > 100 | > 100 | > 100 | > 100 | > 100 | > 100 | > 100 | > 100 | > 100 | > 100 |
| CC(C)=CCN1c2ccccc2[C@@]2(CC=C(C)C)CCN(C)[C@@H]12 |  | 34.8 | 29.5 | > 100 | > 100 | > 100 | > 100 | 54.3 | 50.3 | > 100 | > 100 | > 100 | 40.5 | > 100 | 73.2 | > 100 | 53 | > 100 |  |
| C(#C[C@@]12CCC[C@@H]1NCO2)c1ccc2c(c1)OCO2 | > 100 | > 100 | 34.6 | > 100 | > 100 | 67.7 | > 100 | > 100 | > 100 | > 100 | > 100 | > 100 | > 100 | > 100 |  | > 100 | > 100 | > 100 | > 100 |
| C=C1C(=O)O[C@H]2[C@@H]3O[C@@](C)(CC/C=C(\C)CCC[C@@H]2C)[C@H](O)C[C@@H]13 | 27.4 | 20.9 | 31.6 | 30.7 | > 100 |  | 5.89 | 53.6 | 16.8 | 21.6 | > 100 | 24.4 | > 100 | 10.1 | > 100 | 22.1 | 16.2 | 6.25 | > 100 |
| CC(C(=O)NCNC(=O)c1ccccc1)C(=O)NCc1ccccc1 (centres undefined) | > 100 | > 100 |  | > 100 | > 100 | > 100 | > 100 | > 100 | > 100 | > 100 | > 100 | > 100 | > 100 | > 100 | > 100 | > 100 | > 100 | > 100 |  |
| COC(=O)[C@]1(CCC(C)=O)C(=O)C=CN([C@H](C)c2ccccc2)[C@@H]1Cc1ccc(OC)c(OCc2ccccc2)c1I | 32.6 | 29.2 | 29.2 |  | 38.7 | > 100 | 34.3 | 42.9 | 49.4 | 35.7 | 21.3 | 43.5 | 33.9 | 41.3 | 27 | 74.5 | 34.9 | 71.8 | 50.1 |
| COc1ccc2c(c1)SC1=Nc3sc4cc(OC)ccc4[n+]3CN12 | > 100 | 42.4 |  |  | 28.5 | 25.1 |  | > 100 | 38.3 | > 100 | 14.6 | > 100 | 63.6 | > 100 | > 100 | > 100 | 82.7 | > 100 |  |
| O=C1C/C(=C\c2ccccc2)C(=O)c2ccccc2N1 | 48.6 | 40.5 | 37.9 |  | 98.4 | > 100 | 80.4 | 42.7 | 78.1 | 49.7 | 60.7 | 44.7 |  | 47.8 | 29.3 | 50.1 | 34.5 | 58.4 | 35.4 |
